Experimental data from patent publication US10604554B2, “Double-acylated GLP-1 derivatives” (Novo Nordisk A/S, priority 2012, dated 2020).
Where two headings read alike, the source gives them in different places.

Assays:
[1] = biological target: T1, human GLP-1 receptor (Homo sapiens, UniProt P43220); test: GLP-1 receptor binding (SPA, displacement of 125I-GLP-1)
T1 construct: expressed in transfected cells; host or cells: BHK cells, clone FCW467-12A/KZ10-1 (parent line BHKTS13), further transfected with CRE luciferase
How it was run: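 Tracer [125I]-GLP-1(7-36)NH2 at 0.06 nM final competed on hamster stably transfected cell membranes captured by WGA SPA beads; 120 min, 30 °C, scintillation count.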

[2] = biological target: T1, human GLP-1 receptor; test: In vitro potency (CRE luciferase; whole cells); assay type: cell-based; conditions: BHK cells
How it was run: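 Reporter: CRE-luciferase in BHK cells stably expressing human GLP-1R, 5×10^3 cells/well; compounds tested in buffer containing 0% or 1% HSA.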

[3] = in vivo; conditions: male, Sprague Dawley, rat, iv
Protocol: (§1) The purpose of this Example is to investigate half-life in vivo in rat.
(§2) In vivo pharmacokinetic studies in rats were performed with the GLP-1 derivatives of a number of the Example compounds, as described in the following.
(§3) Male Sprague Dawley rats of same age with a body weight of approximately 400 g were obtained from Taconic (Denmark) and assigned to the treatments by simple randomisation on body weight, approximately 4 rats per group.
(§4) The GLP-1 derivatives (approximately 6 nmol/ml) were dissolved in 50 mM sodium phosphate, 145 mM sodium chloride, 0.05% tween 80, pH 7.4. Intravenous injections (1.0 ml/kg) of the compounds were given with a syringe in the tail vein of conscious rats. Blood was sampled from vena sublingualis for 5 days post dosing. Blood samples (200 μl) were collected in EDTA buffer (8 mM) and then centrifuged at 4° C. and 10000 G for 5 minutes. Plasma samples were kept at −20° C. until analyzed for plasma concentration of the respective GLP-1 compound.
(§5) The donor beads were coated with streptavidin, while acceptor beads were conjugated with a monoclonal antibody recognising a mid-/C-terminal epitope of the peptide. Another monoclonal antibody, specific for the N-terminus, was biotinylated. The three reactants were combined with the analyte and formed a two-sited immuno-complex. Illumination of the complex released singlet oxygen atoms from the donor beads, which were channeled into the acceptor beads and triggered chemiluminescence which was measured in an Envision plate reader. The amount of light was proportional to the concentration of the compound.
(§6) Plasma concentration-time profiles were analyzed using Phoenix WinNonLin ver. 6.2, Pharsight Inc., Mountain View, Calif., USA), and the half-life (T1/2) calculated using individual plasma concentration-time profiles from each animal.

[4] = in vivo; conditions: male, Göttingen, minipig, iv
[5] = Pharmacokinetic (PK) study in minipig; conditions: male, Göttingen, in vivo, iv
[6] = Pharmacokinetic (PK) study in rat; conditions: male, Sprague Dawley, in vivo, iv, 6 nmol/kg
Protocol: as §1, §2, §3, §4, §5, §6

[7] = In vitro potency (CRE luciferase) EC50 (1% HSA), 1% HSA

T1 sequence (P43220 24-463): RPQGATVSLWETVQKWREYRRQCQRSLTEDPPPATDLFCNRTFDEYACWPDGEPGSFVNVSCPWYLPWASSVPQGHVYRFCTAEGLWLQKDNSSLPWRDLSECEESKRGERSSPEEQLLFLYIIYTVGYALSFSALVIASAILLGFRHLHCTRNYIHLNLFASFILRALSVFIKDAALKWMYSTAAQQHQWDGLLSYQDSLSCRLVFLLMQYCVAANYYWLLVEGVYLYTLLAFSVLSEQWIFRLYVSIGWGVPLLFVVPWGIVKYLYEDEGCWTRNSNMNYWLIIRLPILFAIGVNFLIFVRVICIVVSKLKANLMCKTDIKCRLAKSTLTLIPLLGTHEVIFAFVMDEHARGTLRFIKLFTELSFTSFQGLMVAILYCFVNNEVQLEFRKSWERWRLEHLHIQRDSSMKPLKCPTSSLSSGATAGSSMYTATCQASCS

| IC50 ([1]; 0.001% HSA (low albumin), read-out: Receptor binding affinity IC50 (low HSA)) | IC50 (high HSA) ([1]; Receptor binding affinity IC50 (high HSA), 2.0% HSA (high albumin), heading: Receptor binding affinity IC50) | EC50 ([2]; 0% HSA, read-out: In vitro potency (CRE luciferase) EC50 (0% HSA)) | half-life [3] | half-life [4] | SMILES | EC50 [2, 7] | IC50 ([1]; Receptor binding affinity IC50 (high HSA), 2.0% HSA (high albumin)) | IC50 ([1]; Receptor binding affinity IC50 (low HSA), 0.001% HSA (low albumin)) | EC50 ([2]; In vitro potency (CRE luciferase) EC50 (0% HSA), 0% HSA) | half-life [5] | half-life [6] |
| --- | --- | --- | --- | --- | --- | --- | --- | --- | --- | --- | --- |
| 0.74 nM | 522 nM | 0.0073 nM | 28 h | 95 h | CC[C@H](C)[C@H](NC(=O)[C@H](Cc1ccccc1)NC(=O)[C@H](CCC(=O)O)NC(=O)[C@H](CCCCNC(=O)[C@@H](N)CCCCNC(=O)COCCOCCNC(=O)CC[C@H](NC(=O)CC[C@H](NC(=O)CCCCCCCCCCCCCCC(=O)O)C(=O)O)C(=O)O)NC(=O)[C@H](C)NC(=O)[C@H](C)NC(=O)[C@H](CCC(N)=O)NC(=O)CNC(=O)[C@H](CCC(=O)O)NC(=O)[C@H](CC(C)C)NC(=O)[C@H](Cc1ccc(O)cc1)NC(=O)[C@H](CO)NC(=O)[C@H](CO)NC(=O)[C@@H](NC(=O)[C@H](CC(=O)O)NC(=O)[C@H](CO)NC(=O)[C@@H](NC(=O)[C@H](Cc1ccccc1)NC(=O)[C@@H](NC(=O)CNC(=O)[C@H](CCC(=O)O)NC(=O)C(C)(C)NC(=O)[C@@H](N)Cc1c[nH]cn1)[C@@H](C)O)[C@@H](C)O)C(C)C)C(=O)N[C@@H](C)C(=O)N[C@@H](Cc1c[nH]c2ccccc12)C(=O)N[C@@H](CC(C)C)C(=O)N[C@H](C(=O)N[C@@H](CCCNC(=N)N)C(=O)NCC(=O)N[C@@H](CCCNC(=N)N)C(=O)N[C@@H](CCCCNC(=O)[C@@H](N)CCCCNC(=O)COCCOCCNC(=O)CC[C@H](NC(=O)CC[C@H](NC(=O)CCCCCCCCCCCCCCC(=O)O)C(=O)O)C(=O)O)C(=O)O)C(C)C [Example 11, N^ε26-[(2S)-2-amino-6-[[2-[2-[2-[[(4S)-4-carboxy-4-[[(4S)-4-carboxy-4-(15-carboxypentadecanoylamino)butanoyl]amino]butanoyl]amino]ethoxy]ethoxy]acetyl]amino]hexanoyl], N^ε37-[(2S)-2-amino-6-[[2-[2-[2-[[(4S)-4-carboxy-4-[[(4S)-4-carboxy-4-(15-carboxypentadecanoylamino)butanoyl]amino]butanoyl]amino]ethoxy]ethoxy]acetyl]amino]hexanoyl]-[Aib^8,Arg^34, Lys^37]-GLP-1-(7-37)-peptide] | 1.57 nM | – | – | – | – | – |
| – | – | – | – | – | CC[C@H](C)[C@H](NC(=O)[C@H](Cc1ccccc1)NC(=O)[C@H](CCC(=O)O)NC(=O)[C@H](CCCCNC(=O)[C@H](CCCCNC(=O)[C@H](CCCCNC(=O)CC[C@H](NC(=O)CCCCCCCCCCOc1ccc(C(=O)O)cc1)C(=O)O)N(C)C)N(C)C)NC(=O)[C@H](C)NC(=O)[C@H](C)NC(=O)[C@H](CCC(N)=O)NC(=O)CNC(=O)[C@H](CCC(=O)O)NC(=O)[C@H](CC(C)C)NC(=O)[C@H](Cc1ccc(O)cc1)NC(=O)[C@H](CO)NC(=O)[C@H](CO)NC(=O)[C@@H](NC(=O)[C@H](CC(=O)O)NC(=O)[C@H](CO)NC(=O)[C@@H](NC(=O)[C@H](Cc1ccccc1)NC(=O)[C@@H](NC(=O)CNC(=O)[C@H](CCC(=O)O)NC(=O)C(C)(C)NC(=O)CCc1c[nH]cn1)[C@@H](C)O)[C@@H](C)O)C(C)C)C(=O)N[C@@H](C)C(=O)N[C@@H](Cc1c[nH]c2ccccc12)C(=O)N[C@@H](CC(C)C)C(=O)N[C@H](C(=O)N[C@@H](CCCNC(=N)N)C(=O)NCC(=O)N[C@@H](CCCNC(=N)N)C(=O)N[C@@H](CCCCNC(=O)[C@H](CCCCNC(=O)[C@H](CCCCNC(=O)CC[C@H](NC(=O)CCCCCCCCCCOc1ccc(C(=O)O)cc1)C(=O)O)N(C)C)N(C)C)C(=O)O)C(C)C [Example 29, N^ε26-[(2S)-6-[[(2S)-6-[[(4S)-4-carboxy-4-[11-(4-carboxyphenoxy)undecanoylamino]butanoyl]amino]-2-(dimethylamino)hexanoyl]amino]-2-(dimethylamino)hexanoyl], N^ε37-[(2S)-6-[[(2S)-6-[[(4S)-4-carboxy-4-[11-(4-carboxyphenoxy)undecanoylamino]butanoyl]amino]-2-(dimethylamino)hexanoyl]amino]-2-(dimethylamino)hexanoyl]-[Imp^7,Aib^8,Arg^34,Lys^37]-GLP-1-(7-37)-peptide] | 0.427 nM | 56 nM | 0.55 nM | 0.0079 nM | 82 h | 19 h |
